Source: patent publication US11241406B2, “Compositions and methods for acutley raising nitric oxide levels” (Nature's Sunshine Products, Inc., priority 2015, dated 2022)

What was measured:
Myeloperoxidase (MPO) = biological target: T1, Myeloperoxidase (MPO) (Homo sapiens, UniProt P05164); assay: Myeloperoxidase Inhibitor Screening Assay (chlorination, hypochlorous acid production); assay type: biochemical; conditions: MPO inhibition; parenthetic values are 95% confidence interval; read-out: Observed IC50 (converted)
T1 sequence (P05164 49-745): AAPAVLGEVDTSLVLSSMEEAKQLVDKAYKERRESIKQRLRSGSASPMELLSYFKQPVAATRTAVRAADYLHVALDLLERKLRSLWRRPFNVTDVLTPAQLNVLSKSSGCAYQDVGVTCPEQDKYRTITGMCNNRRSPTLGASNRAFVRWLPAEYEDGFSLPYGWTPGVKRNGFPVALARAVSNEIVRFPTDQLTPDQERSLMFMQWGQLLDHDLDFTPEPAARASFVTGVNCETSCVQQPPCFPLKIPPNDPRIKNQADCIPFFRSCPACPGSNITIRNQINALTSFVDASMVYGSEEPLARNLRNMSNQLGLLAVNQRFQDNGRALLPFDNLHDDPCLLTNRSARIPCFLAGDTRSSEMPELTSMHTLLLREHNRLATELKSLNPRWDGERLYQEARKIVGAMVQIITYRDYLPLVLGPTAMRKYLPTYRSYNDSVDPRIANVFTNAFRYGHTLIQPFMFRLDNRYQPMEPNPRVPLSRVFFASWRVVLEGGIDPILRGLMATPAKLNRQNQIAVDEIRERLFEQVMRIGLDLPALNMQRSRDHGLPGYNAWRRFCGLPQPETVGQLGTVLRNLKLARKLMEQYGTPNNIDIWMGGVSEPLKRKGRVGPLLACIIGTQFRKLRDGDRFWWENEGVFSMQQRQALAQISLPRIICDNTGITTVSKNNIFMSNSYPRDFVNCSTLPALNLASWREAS
Protocol: Formulations 1 and 2, as described in Table 2 above, were tested for their synergistic activity. Additional samples of F1 and F2 were prepared at an initial concentration of 100 mg/mL in an acetone:water (1:1) solution, sonicated in an ice bath for 60 min with vortexing every 10 min, and centrifuged at 3000 rpm at ambient temperature for 5 min. The supernatant liquid was transferred to fresh tubes and centrifuged again at 13,300 rpm at ambient temperature for 10 min. This final supernatant fraction was transferred to fresh tubes and stored at −80° C. until assayed.
The acetone used in this example was obtained through Fisher Chemical Co (Pittsburgh, Pa.) and was the highest purity available. […]
The chlorination assay utilizes the non-fluorescent 2-[6-(4-aminophenoxy)-3-oxo-3H-xanthen-9-yl]-benzoic acid (APF), which is selectively cleaved by hypochlorite to yield the highly fluorescent compound fluorescein. Fluorescein fluorescence was analyzed with an excitation wavelength of 480-495 nm and an emission wavelength of 515-525 nm using a Cytation5 microplate fluorescence reader (Bio Tek Instruments, Winooski, Vt.).
The median inhibitory concentration (IC50) for the inhibition of MPO activity was calculated using CalcuSyn (BIOSOFT, Ferguson, Mo.). […]
Synergy of test components was then quantified using the combination index (CI) parameter. […]

[1] = cited from earlier work
[2] = test system: NO biomarker NO2 in saliva; assay: Salivary NO biomarker (NO2) test strips after dosing of the formulations; assay type: in vivo, human; conditions: pharmacodynamic studies in this laboratory
Protocol: Over three days, subjects, with normal plasma concentrations of ADMA, were instructed to consume the 10 g of either F1 or F2 with 500 mL of water subsequent to developing the first, pre-dose NO strip. At post-dosing times 30, 60 and 90 minutes, NO strips were again developed for all subjects. One subject was given a 2× dose (20 g) of both formulations over the experimental period. The salivary NO strips, which detect salivary NO2, were nitric Oxide Test Strips (Berkeley Test, Berkeley, Calif.). Color development of NO strips was quantitated using densitometry. Means and 95% confidence intervals were computed using Excel [Microsoft, Redman, Wash.].
The assay of nitrite in saliva and nitrate in Test Formulation 3 (F3) was conducted as described in Example 1. Color development of NO strips was quantitated as described in Example 1. Means and 95% confidence intervals were computed as described in Example 1.
During the morning period, subjects (n=5), with normal plasma concentrations of ADMA, were instructed to consume 5 mL of the F3 with 500 mL of water subsequent to developing the first, pre-dose NO strip. At post-dosing times 30, 60 and 90 minutes, NO strips were again developed for all subjects.

SMILES	IC50 (Myeloperoxidase (MPO)) [µM]	bioavailability ([1]; dietary NO3) [%]	half-life in plasma ([1]; orally consumed NO3)	time to peak plasma concentration ([1]; orally consumed NO3)	NO3 content that does not produce a detectable increase in NO strip color development [2]
N=C(N)NCCC[C@H](N)C(=O)O [L-Arginine]	46.4				
NC(=O)NCCC[C@H](N)C(=O)O [L-Citrulline]	103				
O=[N+]([O-])O [NO3]		100	about 5 hours	about 1 hour	below 12.5 mg NO3/dose
